The assay deals with T1, Taste receptor type 2 member 10 (Homo sapiens) (UniProt Q9NYW0).
T1 sequence (whole entry): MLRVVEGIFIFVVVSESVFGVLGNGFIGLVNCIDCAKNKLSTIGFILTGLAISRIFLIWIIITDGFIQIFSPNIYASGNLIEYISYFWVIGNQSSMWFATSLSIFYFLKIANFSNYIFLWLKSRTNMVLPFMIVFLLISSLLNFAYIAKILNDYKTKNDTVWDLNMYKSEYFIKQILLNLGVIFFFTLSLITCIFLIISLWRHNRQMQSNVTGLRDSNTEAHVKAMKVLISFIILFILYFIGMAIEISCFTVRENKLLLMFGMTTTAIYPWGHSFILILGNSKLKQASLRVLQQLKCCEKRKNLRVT
As to the kind of experiment: Competitive-antagonist activity at recombinant human N-terminal rat ST3 receptor-fused TAS2R10 expressed in HEK293T cells co-expressing Galpha16gust44 assessed as inhibition of strychnine-induced increase in intracellular calcium level by measuring maximum signal amplitude at 30 uM by FLIPR assay (reference value: 0.42 +/- 0.09 a.u.). It is filed as functional, cell-based. A general note: Calcium flux is commonly read through the fluorescence of an indicator in the cells.

The results in this text go back to ChEMBL document CHEMBL4418912, “Methods of identifying antagonists of the hTAS2R46 bitter taste receptor” (2014).

On to `C/C1=C\C[C@H](O)/C(C)=C/[C@H]2OC(=O)[C@@H](C)[C@@H]2CC1`, for which the Activity was 0.41 a.u.
